Laboratory results as given in publication PMC3017236 (Clinical cancer research : an official journal of the …, 2010).
Like-named read-outs stand apart in the source and are kept apart here.

Experiments:
in vitro = conditions: mouse, plasma
[1] = format: in vivo, mouse; conditions: for Mean AUC0-24,Plasma compared to wild-type mice: mouse, in vivo, po, 50 mg/kg
human MRP4 = molecular target: T1, human MRP4 (Homo sapiens, UniProt O15439); assay: Intracellular accumulation in Saos2-MRP4 cells vs Saos2-pcDNA3.1; conditions: Saos2-MRP4 vs Saos2-pcDNA3.1, 0.5 μg/mL, 37°C
T1 sequence (O15439 1-1325): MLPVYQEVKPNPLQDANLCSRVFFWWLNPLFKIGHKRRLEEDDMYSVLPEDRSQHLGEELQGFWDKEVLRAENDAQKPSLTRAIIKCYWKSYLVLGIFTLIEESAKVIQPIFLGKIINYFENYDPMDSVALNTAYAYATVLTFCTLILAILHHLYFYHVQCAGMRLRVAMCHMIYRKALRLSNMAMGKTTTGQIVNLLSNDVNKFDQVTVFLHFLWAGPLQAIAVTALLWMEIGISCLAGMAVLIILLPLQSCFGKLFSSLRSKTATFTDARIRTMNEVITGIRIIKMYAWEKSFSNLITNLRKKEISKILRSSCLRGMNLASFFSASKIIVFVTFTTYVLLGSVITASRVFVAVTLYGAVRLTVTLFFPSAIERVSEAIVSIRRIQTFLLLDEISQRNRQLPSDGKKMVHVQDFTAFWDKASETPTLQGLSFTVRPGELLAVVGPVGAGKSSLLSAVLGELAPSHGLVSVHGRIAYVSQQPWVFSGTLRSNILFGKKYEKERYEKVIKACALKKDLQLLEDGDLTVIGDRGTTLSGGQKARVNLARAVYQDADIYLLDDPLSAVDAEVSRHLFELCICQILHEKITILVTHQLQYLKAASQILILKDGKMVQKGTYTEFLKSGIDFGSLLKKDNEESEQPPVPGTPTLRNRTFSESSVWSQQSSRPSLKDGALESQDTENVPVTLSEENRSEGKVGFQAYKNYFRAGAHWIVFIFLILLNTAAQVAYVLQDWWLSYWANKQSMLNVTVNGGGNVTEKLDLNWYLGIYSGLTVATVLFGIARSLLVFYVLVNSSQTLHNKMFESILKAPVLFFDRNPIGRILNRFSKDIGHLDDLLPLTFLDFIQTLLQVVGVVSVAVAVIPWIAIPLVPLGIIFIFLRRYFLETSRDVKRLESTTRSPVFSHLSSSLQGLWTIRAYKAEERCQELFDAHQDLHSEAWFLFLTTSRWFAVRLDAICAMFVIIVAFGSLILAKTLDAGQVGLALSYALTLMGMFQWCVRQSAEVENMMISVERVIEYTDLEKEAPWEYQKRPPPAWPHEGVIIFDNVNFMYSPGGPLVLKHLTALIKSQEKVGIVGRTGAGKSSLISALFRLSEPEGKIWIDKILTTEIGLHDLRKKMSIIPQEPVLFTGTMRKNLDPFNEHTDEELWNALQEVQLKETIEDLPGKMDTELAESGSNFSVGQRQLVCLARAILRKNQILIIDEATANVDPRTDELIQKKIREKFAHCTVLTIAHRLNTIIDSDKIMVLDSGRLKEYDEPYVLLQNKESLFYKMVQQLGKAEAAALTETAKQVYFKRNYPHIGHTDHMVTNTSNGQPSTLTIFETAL

OCT1 = molecular target: T2, OCT1 (Homo sapiens, UniProt O15245); assay: Uptake in HEK-293 cells transfected with OCT1 vs empty vector; format: in vitro ADME; conditions: HEK-293/OCT1
T2 sequence (O15245 1-554): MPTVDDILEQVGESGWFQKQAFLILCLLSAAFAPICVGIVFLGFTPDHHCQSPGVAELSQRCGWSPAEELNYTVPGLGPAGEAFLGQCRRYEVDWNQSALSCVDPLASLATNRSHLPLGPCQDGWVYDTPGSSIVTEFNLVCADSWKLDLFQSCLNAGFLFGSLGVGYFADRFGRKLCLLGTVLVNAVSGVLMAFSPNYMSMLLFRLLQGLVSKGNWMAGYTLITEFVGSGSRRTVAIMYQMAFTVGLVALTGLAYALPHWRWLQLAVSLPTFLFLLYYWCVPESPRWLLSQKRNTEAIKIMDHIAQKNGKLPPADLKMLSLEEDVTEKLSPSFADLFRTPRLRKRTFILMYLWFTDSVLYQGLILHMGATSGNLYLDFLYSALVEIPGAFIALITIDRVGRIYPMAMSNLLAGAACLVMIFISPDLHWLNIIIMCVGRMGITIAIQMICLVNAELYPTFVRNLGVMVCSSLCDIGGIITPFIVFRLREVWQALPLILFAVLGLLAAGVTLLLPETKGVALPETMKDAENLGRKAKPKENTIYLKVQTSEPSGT

[2] = system: P-gp (Mdr1a/b) and Bcrp1/Abcg2; assay: in vivo; conditions: mouse, brain ECF (relative to unbound plasma), po, 50 mg/kg
OAT2 = molecular target: T3, OAT2 (Homo sapiens, UniProt Q9Y694); assay: Uptake in HEK-293 cells transfected with OAT2 vs empty vector; format: in vitro ADME; conditions: HEK-293/OAT2
T3 sequence (Q9Y694 1-548): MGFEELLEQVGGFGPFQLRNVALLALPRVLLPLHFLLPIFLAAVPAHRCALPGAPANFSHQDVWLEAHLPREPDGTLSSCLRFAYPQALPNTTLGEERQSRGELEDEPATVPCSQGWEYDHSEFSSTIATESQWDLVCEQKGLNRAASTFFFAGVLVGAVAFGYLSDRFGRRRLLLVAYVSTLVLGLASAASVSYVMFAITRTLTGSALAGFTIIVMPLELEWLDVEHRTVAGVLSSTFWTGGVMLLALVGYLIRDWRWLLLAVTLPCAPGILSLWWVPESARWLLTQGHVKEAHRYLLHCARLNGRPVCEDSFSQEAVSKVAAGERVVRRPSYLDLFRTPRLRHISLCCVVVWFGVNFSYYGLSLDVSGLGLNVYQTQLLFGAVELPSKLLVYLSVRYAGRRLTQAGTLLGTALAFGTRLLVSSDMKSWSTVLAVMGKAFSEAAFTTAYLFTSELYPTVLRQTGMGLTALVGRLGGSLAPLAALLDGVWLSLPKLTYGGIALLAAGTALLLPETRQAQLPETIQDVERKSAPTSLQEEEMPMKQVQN

Mrp4/Abcc4 [3] = assay: in vivo; conditions: mouse, brain ECF (relative to unbound plasma), po, 50 mg/kg
Mrp4/Abcc4 [4] = assay: Brain microdialysis; conditions: Abcc4−/− mice, 50 mg/kg oral erlotinib, mean ± SD
P-gp (Mdr1a/b) = conditions: mouse, in vivo, po, 50 mg/kg

SMILES	fraction unbound at 10 h (in vitro)	Mean AUC0-24,Plasma compared to wild-type mice ([1]; Abcc4−/−) [fold]	Mean AUC0-24,Plasma compared to wild-type mice ([1]; Abcg2−/−) [fold]	Mean AUC0-24,Plasma compared to wild-type mice ([1]; Mdr1a/b−/−) [fold]	Mean AUC0-24,Plasma compared to wild-type mice ([1]; Mdr1a/b−/−Abcg2−/−) [fold]	Tolerability of single dose ([1]; single oral dose 50 mg/kg, all strains)	Intracellular accumulation vs control cells (human MRP4)	Transport by transporter (OCT1)	Kp [2]	Transport by transporter (OAT2)	Kp (Mrp4/Abcc4 [3])	PBrain (brain ECF-to-unbound plasma AUC0-24 ratio) (Mrp4/Abcc4 [4])	PBrain (brain ECF-to-unbound plasma AUC0-24 ratio) (P-gp (Mdr1a/b))
C#Cc1cccc(Nc2ncnc3cc(OCCOC)c(OCCOC)cc23)c1 [erlotinib, Erlotinib]	0.048	0.9	1.25	0.9	1.3	tolerated well	did not show a significant difference	not found to transport	0.7 ± 0.26	not found to transport	0.32 ± 0.24		
C#Cc1cccc(Nc2ncnc3cc(OCCOC)c(OCCO)cc23)c1 [OSI-420]							did not show a significant difference					0.08 ± 0.06	0.04±0.02
